Counter-ions that a name gives are not always drawn.
Experiments:
Test in all cases: voltage-clamp of hemichannel currents in Xenopus oocytes
Assay type in all cases: cell-based
[1] = target: connexin26 (Cx26) hemichannel (Homo sapiens, UniProt P29033, A40V)
[2] = target: T1, connexin26 (Cx26) hemichannel (Homo sapiens, UniProt P29033, G45E)
[3] = target: connexin26 (Cx26) hemichannel (Homo sapiens, UniProt P29033, D50A)
[4] = target: connexin26 (Cx26) hemichannel (Homo sapiens, UniProt P29033, D50N)
[5] = target: T1, connexin26 (Cx26) hemichannel; remark: listed apart in the source

Structure (SMILES) | % [1] | IC50 [2] [µM] | % [3] | % [4] [% reduction at 30µM] | % [5] [% reduction at 30µM]
O[C@@H](c1cc(C(F)(F)F)nc2c(C(F)(F)F)cccc12)[C@H]1CCCCN1 (relative stereo) [MFQ, [R*,S*]-[2,8-Bis-trifluoromethyl-quinolin-4-yl]-piperidin-2-yl-methanolhydrochloride] | 50% or better suppression at 30µM | ~16 | 50% or better suppression at 30µM | 69±15 | 
OC(c1ccccn1)c1cc(C(F)(F)F)nc2c(C(F)(F)F)cccc12 (stereo not drawn) [QU026, [2,8-Bis-trifluoromethyl-quinolin-4-yl]-pyridin-2-yl-methanol] |  |  |  | 73±11 | 59±13

Reference: publication PMC4363291 (The Journal of investigative dermatology, 2014)
